Experimental data: the METLIN SMRT retention time set (Domingo-Almenara et al. 2019)

Experiment: gradient 5% acetonitrile 3 min, to 50% in 2 min, to 85% in 15 min, held 3 min, 100 µL/min
Conditions: column: Zorbax Extend-C18 2.1 x 50 mm; eluents: water / acetonitrile, 0.1% formic acid
Summary of the method: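 Retention time was recorded from adduct peaks, which were picked computationally and each inspected manually. Pure standards ran in mixtures of ~100 molecules on HPLC coupled to a quadrupole time-of-flight mass spectrometer, in positive and negative ionization mode, through a Zorbax Extend-C18 column (2.1 × 50 mm, 1.8 μm) at 100 μL/min. Eluents were water and acetonitrile, each with 0.1% formic acid.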

Structure (SMILES): COc1ccc(C2OC(c3cc(OC)c(OC)c(OC)c3)=NN2C(C)=O)c(OC)c1 (stereo unspecified)
- RP-LC retention time: 885 s

Structure (SMILES): CCS(=O)(=O)N1CCCN(C2=NS(=O)(=O)C(c3ccc(C)cc3)=C2C)CC1
- RP-LC retention time: 827 s

Structure (SMILES): Cn1ncc(N2CCCC(CC(=O)O)C2)cc1=O (stereo unspecified)
- RP-LC retention time: 613 s

Structure (SMILES): CCOC(=O)CCNC(=O)N1CCCN(C)c2ccccc21
- RP-LC retention time: 623 s

Structure (SMILES): CC(C)(C)c1csc(-c2csc(S(=O)(=O)NCc3ccccc3Cl)c2)n1
- RP-LC retention time: 1300 s

Structure (SMILES): CN1C(=O)C2CCCCN2c2ccc(C(=O)NCCCN3CCN(C4CCCCC4)CC3)cc21 (stereo unspecified)
- RP-LC retention time: 594 s

Structure (SMILES): Cc1cc(N2CCN(S(=O)(=O)c3ccccc3F)CC2)nc(NC2CCCCC2)n1
- RP-LC retention time: 796 s

Structure (SMILES): Cc1ccc(CN2CCCC(c3nc(-c4cnccn4)no3)CCNC(=O)CC2)s1 (stereo unspecified)
- RP-LC retention time: 603 s

Structure (SMILES): Cc1ccc(Cl)cc1NC(=O)C1CCN(S(=O)(=O)c2ccc3c(c2)NC(=O)CO3)CC1
- RP-LC retention time: 786 s

Structure (SMILES): CCc1nnc2ccc(NC(=O)Nc3cccc(C)c3)cn12
- RP-LC retention time: 719 s

Structure (SMILES): CCc1nnc([C@@H]2CC(F)(F)CN2C(=O)c2n[nH]c3ccccc23)o1
- RP-LC retention time: 734 s

Structure (SMILES): COc1ccc(S(=O)(=O)N2CCc3nc[nH]c3C2)cc1
- RP-LC retention time: 586 s

Structure (SMILES): Cc1ccc(-c2cc(C(N)=O)[nH]n2)cc1C
- RP-LC retention time: 690 s

Structure (SMILES): COc1ccc(OC)c(NC(=O)C(C)C2CCN(C(=O)Nc3ccc(C)cc3)CC2)c1 (stereo unspecified)
- RP-LC retention time: 908 s

Structure (SMILES): CCOc1ccc(NS(=O)(=O)c2cc3c4c(c2)CCC(=O)N4CCC3)cc1
- RP-LC retention time: 818 s

Structure (SMILES): CCn1cc(-c2nc(C(=O)Nc3ccccc3Cl)cs2)c2cccnc21
- RP-LC retention time: 1330 s

Structure (SMILES): O=C1CCC(CCNS(=O)(=O)c2ccc3c(c2)CCCC3)CCN1CC1CC1 (stereo unspecified)
- RP-LC retention time: 938 s

Structure (SMILES): Cc1ccccc1-c1nnc(CSc2nnc(NC(=O)Cc3ccc(F)cc3)s2)o1
- RP-LC retention time: 923 s

Structure (SMILES): CN(C)C(=O)c1nc2ccccn2c1-c1ccsc1
- RP-LC retention time: 595 s

Structure (SMILES): COc1ccc(C)cc1NC(=O)N1CCN(c2ccc(-c3ccc4c(c3)OCO4)nn2)CC1
- RP-LC retention time: 659 s

Structure (SMILES): O=C(NCCc1csc(-c2cccs2)n1)C1CCN(S(=O)(=O)c2cccc(Cl)c2)CC1
- RP-LC retention time: 975 s

Structure (SMILES): CCOc1ccccc1C(=O)N1CCN=C1SCc1ccc([N+](=O)[O-])cc1
- RP-LC retention time: 898 s

Structure (SMILES): O=C(c1cc(-c2ccccn2)n[nH]1)N1CCCC(C(=O)N2CCc3ccccc32)C1 (stereo unspecified)
- RP-LC retention time: 713 s

Structure (SMILES): Cc1ccc(CN2CCC(CNS(=O)(=O)c3ccc4c(c3)CCCC(=O)N4)C2)cc1 (stereo unspecified)
- RP-LC retention time: 625 s

Structure (SMILES): Cc1ccccc1CN1C[C@@H]2C(=O)N(CCc3ccccc3)C(=O)[C@@H]2C1
- RP-LC retention time: 829 s

Structure (SMILES): COCC1(O)CCOC2(CCN(Cc3ccccc3F)CC2)C1 (stereo unspecified)
- RP-LC retention time: 544 s

Structure (SMILES): COc1ccccc1-c1nc(-c2ccc3c(c2)ncn3CCN2CCCC2)no1
- RP-LC retention time: 797 s

Structure (SMILES): Cn1ncc(N2CCCC(C(=O)O)C2)cc1=O (stereo unspecified)
- RP-LC retention time: 580 s

Structure (SMILES): COC(=O)c1c(C)[nH]c(C(=O)N2CCCC(C(=O)NC3CCCCCC3)C2)c1C (stereo unspecified)
- RP-LC retention time: 794 s

Structure (SMILES): c1cc(-c2nc3c(c(N4CCSCC4)n2)CCC3)ccn1
- RP-LC retention time: 675 s

Structure (SMILES): COc1ccc(OC)c(S(=O)(=O)N2CCc3c(c(-c4nnc(-c5ccccc5)o4)nn3C)C2)c1
- RP-LC retention time: 912 s

Structure (SMILES): COC(=O)c1c(C)[nH]c(C(=O)N2CCC(CC(=O)NCc3ccc(C)o3)CC2)c1C
- RP-LC retention time: 702 s

Structure (SMILES): CCCn1cc(C(=O)Nc2cc(OC)ccc2OC)c(=O)c2ccc(C)nc21
- RP-LC retention time: 1090 s

Structure (SMILES): CC(C)C(=O)Nc1ccc(-n2cnc(C(=O)NCc3ccc(Cl)cc3)c2)nc1
- RP-LC retention time: 796 s

Structure (SMILES): Cc1ccc(NC(=O)C2CCN(S(=O)(=O)c3cn(C)cn3)CC2)cc1C
- RP-LC retention time: 734 s

Structure (SMILES): Cc1ccc(Oc2cccc(C(=O)NCCNc3cc(N4CCCC4)nc(C)n3)c2)nn1
- RP-LC retention time: 562 s

Structure (SMILES): COc1ccc(Cl)cc1NS(=O)(=O)c1cc2n(c1)CCN(C(C)C)C2=O
- RP-LC retention time: 803 s

Structure (SMILES): O=C(C1CC1)N1CCc2sc(S(=O)(=O)NCc3ccc(Cl)cc3)cc2C1
- RP-LC retention time: 856 s

Structure (SMILES): COc1ccc(CCNc2ncnc(N)c2[N+](=O)[O-])cc1OC
- RP-LC retention time: 660 s

Structure (SMILES): COCCCNC(=O)c1nc2ccccn2c1-c1ccc(Cl)cc1
- RP-LC retention time: 764 s

Structure (SMILES): O=C(c1ccccn1)N1CCC(n2nc(-c3ccsc3)ccc2=O)CC1
- RP-LC retention time: 641 s

Structure (SMILES): CCOC(=O)c1cc(S(=O)(=O)N2CCCC2C(=O)Nc2cccc(Br)c2)cn1C (stereo unspecified)
- RP-LC retention time: 1010 s

Structure (SMILES): Cc1ccc(S(=O)(=O)N(C)CC2CCOCC2)cc1C
- RP-LC retention time: 886 s

Structure (SMILES): CCCNC(=O)C1CCCN(c2cnc3nc(CC)c(CC)nc3c2)C1 (stereo unspecified)
- RP-LC retention time: 755 s

Structure (SMILES): Cc1nn(CC(=O)N(C)Cc2ccco2)c(=O)c2c(C)n(-c3ccccc3)nc12
- RP-LC retention time: 820 s

Structure (SMILES): Cc1cccc(N2CCN(CC(O)c3ccc4c(c3)OCO4)CC2)c1 (stereo unspecified)
- RP-LC retention time: 669 s

Structure (SMILES): CCOc1cccc(CNC(=O)c2c(C)sc3ccn(C)c(=O)c23)c1
- RP-LC retention time: 804 s

Structure (SMILES): Cc1[nH]c(C(=O)N2CCCC(C(=O)NCCCN3CCOCC3)C2)c(C)c1C(=O)OC(C)C (stereo unspecified)
- RP-LC retention time: 608 s

Structure (SMILES): O=C(c1cccc(Br)c1)N1CCc2nc(-c3ccc(F)cc3)ncc2C1
- RP-LC retention time: 1010 s

Structure (SMILES): CCCNC(=O)c1ccc(CN2CC(=O)N3CCCCC3C2=O)cc1 (stereo unspecified)
- RP-LC retention time: 1120 s

Structure (SMILES): CCCn1ccc2sc(C)c(C(=O)NCc3ccc(C)cc3)c2c1=O
- RP-LC retention time: 948 s

Structure (SMILES): COc1cccc(Cn2ccn3nc(-c4ccc(OC)c(OC)c4)cc3c2=O)c1
- RP-LC retention time: 916 s

Structure (SMILES): CC(=O)N(Cc1nn(C)c2c1CN(Cc1cccc(O)c1)CC2)c1ccccc1
- RP-LC retention time: 592 s

Structure (SMILES): Cc1nc(N2CCCC2)cc(N2CCN(C(=O)c3ccc(Br)o3)CC2)n1
- RP-LC retention time: 645 s

Structure (SMILES): CCCc1cc(C2CCCN2C(=O)NCc2cccc(OC)c2)no1 (stereo unspecified)
- RP-LC retention time: 856 s

Structure (SMILES): O=C(Cn1cnc2nc(N3CCCC(C(=O)NC4CC4)C3)sc2c1=O)NC1CCCCC1 (stereo unspecified)
- RP-LC retention time: 652 s

Structure (SMILES): CN(C)S(=O)(=O)N1CCOc2ccc(CCC(=O)NCC3CC3)cc2C1
- RP-LC retention time: 767 s

Structure (SMILES): Cc1cc(SCC(=O)c2ccc3c(c2)OCO3)nc(C(C)C)n1
- RP-LC retention time: 764 s

Structure (SMILES): COc1ccc([C@H]2Sc3ccccc3N(CCN(C)C)C(=O)[C@H]2OC(C)=O)cc1
- RP-LC retention time: 704 s

Structure (SMILES): COc1cccc2cc(C(=O)Nc3nc4c(s3)CN(S(=O)(=O)C3CC3)CC4)oc12
- RP-LC retention time: 811 s

Structure (SMILES): O=C1CCCN1CCCN1C(=O)[C@H]2CN(Cc3cccc(OC(F)(F)F)c3)C[C@H]2C1=O
- RP-LC retention time: 678 s

Structure (SMILES): CCn1c(COc2cccc3cccnc23)nnc1SC(F)F
- RP-LC retention time: 568 s

Structure (SMILES): Cc1cc(Cl)ccc1OCc1nc(-c2ccc3c(c2)nnn3CCC(=O)N2CCOCC2)no1
- RP-LC retention time: 974 s

Structure (SMILES): COc1cc(N2C=C(C#N)S(=O)(=O)c3ccc(C)cc32)cc(OC)c1OC
- RP-LC retention time: 887 s

Structure (SMILES): NC(=O)C1(c2ccccc2F)CC1
- RP-LC retention time: 681 s

Structure (SMILES): Cc1nc(-c2ccc3c(c2)n(CC(=O)N2CCn4c2nc2ccccc24)c(=O)n3C(C)C)no1
- RP-LC retention time: 832 s

Structure (SMILES): COc1ccc(-c2nc3cnccn3c2Nc2ccc(C(=O)NCCN(C)C)cc2)cc1OC
- RP-LC retention time: 576 s

Structure (SMILES): COc1ccc(OC)c(NC(=O)N2CCC3(CC2)Nc2ccccc2-n2cccc23)c1
- RP-LC retention time: 1040 s

Structure (SMILES): Cc1ccccc1-n1c(-c2ccc(Cl)cc2)cn2c3c(=O)n(C)c(=O)n(C)c3nc12
- RP-LC retention time: 1020 s

Structure (SMILES): CCc1nc2cc3c(cc2n1CC(=O)Nc1cccc(OC)c1)OCCO3
- RP-LC retention time: 660 s

Structure (SMILES): COc1ccc2c(CCNc3nc(-c4ccc(C5CCCCC5)cc4)cs3)c[nH]c2c1
- RP-LC retention time: 1250 s

Structure (SMILES): CC(C)Cn1cc(S(=O)(=O)Nc2ccc(Cl)cc2)c2cccnc21
- RP-LC retention time: 988 s

Structure (SMILES): CN(C)C(=O)c1cc2c(s1)CCC(C(=O)N1CCN(Cc3ccccc3)CC1)C2 (stereo unspecified)
- RP-LC retention time: 556 s

Structure (SMILES): Cc1ccc2c(=O)c(C(=O)N3CCC(C)CC3)cn(CC(=O)Nc3ccccc3)c2n1
- RP-LC retention time: 783 s

Structure (SMILES): CN(C)c1ccc(-c2nc3cnccn3c2Nc2ccc(C(=O)O)cc2)cc1
- RP-LC retention time: 616 s

Structure (SMILES): CCOC(=O)N1CCN(c2ncc(S(=O)(=O)c3ccc(C)cc3)c(N)n2)CC1
- RP-LC retention time: 875 s

Structure (SMILES): CCc1onc(C)c1C1CCCN1C(=O)Nc1ccc(Cl)cc1 (stereo unspecified)
- RP-LC retention time: 873 s

Structure (SMILES): CN(C)C[C@@H]1CN(Cc2cccnc2)C[C@H]1NC(=O)C1(c2ccccc2)CC1
- RP-LC retention time: 557 s

Structure (SMILES): CN(C)c1ncccc1C(=O)Nc1ccccc1Cl
- RP-LC retention time: 716 s

Structure (SMILES): COCCNC(=O)N1CC(c2nc(C3CC3)no2)C1
- RP-LC retention time: 578 s

Structure (SMILES): CC1(C)Cc2cccc(OCC(=O)Nc3ncc([N+](=O)[O-])s3)c2O1
- RP-LC retention time: 906 s

Structure (SMILES): CC1CCCCN1CCN(CCC(=O)N1CCNCC1)C(=O)c1ccc(C(C)(C)C)cc1 (stereo unspecified)
- RP-LC retention time: 593 s

Structure (SMILES): COc1ccc(CSc2ncnc3nc[nH]c23)cc1
- RP-LC retention time: 654 s

Structure (SMILES): Cn1cc(-c2ccccc2)cc1C(=O)NCc1cccs1
- RP-LC retention time: 979 s

Structure (SMILES): COC(=O)c1cccc(C(=O)Nc2ccc(F)cc2Cl)n1
- RP-LC retention time: 993 s

Structure (SMILES): CN1c2ccccc2C(=O)NC12CCN(C(=O)Nc1cccc(F)c1)CC2
- RP-LC retention time: 726 s

Structure (SMILES): COCCN1C(=O)CCc2cc(NS(=O)(=O)c3ccc(F)cc3)ccc21
- RP-LC retention time: 759 s

Structure (SMILES): Cc1nnc2c(=O)n(CC(=O)NCC3CC3)c3cccnc3n12
- RP-LC retention time: 610 s

Structure (SMILES): O=C(c1cccs1)N1CCC(c2nnc(-c3ccc(F)cc3)o2)CC1
- RP-LC retention time: 733 s

Structure (SMILES): CC(C)CCNc1ccc(-c2nc(-c3ccc(F)cc3)no2)cn1
- RP-LC retention time: 1230 s

Structure (SMILES): COc1cccc(Cn2nnc(C(=O)O)c2C)c1
- RP-LC retention time: 666 s
